# From US20110158947A1, “SULFONYLUREA RECEPTOR AND MEANS FOR TREATING ISCHAEMIA” (priority 2008, published 2011)
# Legend:
# [1] = tested on: H9C2 cells; test: Cell survival assay (Multitox-Fluor) under DNP metabolic stress; format: cell-based, rat; details: control (GFP-infected) H9C2 cells, DNP 10 mM, n=14
# Procedure: H9C2 cells Rat embryonic heart H9c2 cells (ECACC, Salisbury, UK) were cultured in a tissue flask (at 5% CO2) containing Dulbecco's modified Eagle's medium supplemented with 10% fetal calf serum and 2 mM glutamine. For electrophysiological experiments, the cells were plated on a 35×10-mm culture dish containing 25-mm glass cover-slips. The cells were cultured in incubators (Galaxy, oxygen control model, RS Biotech, Irvine, UK). […] The recombinant SUR2A adenovirus (AV-SUR2A) was generated using the AdEasy XL Adenoviral Vector System (Stratagene). SUR2A gene was cloned into a shuttle vector pShuttle-CMV by PCR using the following primers containing restrict enzyme sites Bgl II/Xho I, sense, 5′-GCAGATCT GGCAGGCTGTTGGTAGCTCA-3′, antisense, 5′-GCCTCGAG CTACTTGTTGGTCATCACCA-3. […] The virus titer is determined using QuickTiter Adenovirus Titer Immunoassay Kit (Cell Biolabs, Inc) according to manufacturer's instructions. […]
# The survival of H9C2 cells were assayed using Multitox-Fluor Multiplex Cytotoxicity Assay (Promega). […] Following 30 min-long incubation at 37° C., plates were measured using 1420 Multibabel Counter (Victor) plate reader, with excitation at 370 nm and emissions of 480 nm. The percentage of live cells was calculated based on the intensity of fluorescence according to the manufacturer instructions.
# [2] = tested on: cardiomyocytes; test: Intracellular Ca2+ (Fluo-3) in cardiomyocytes exposed to isoprenaline; format: cell-based, mouse; details: 100 μM, n=6
# Text: Ventricular cardiomyocytes were dissociated from the mouse using an established enzymatic procedure. Mitochondrial membrane potential was monitored in cells exposed to hypoxia as described. To measure the mitochondrial membrane potential cells were loaded with JC-1 according to the manufacturer's instructions (Invitrogen, Paisley, UK) and continously monitored with LSM-510. Fluorescence was imaged at 488 nm excitation wavelength and emission was captured at 530 and 590 nm for green and red channels respectively; the JC-1 ratio refers always to green/red ratio. The moment of cell death was defined as the point when the cell has become rounded (ratio of diameters<2). In addition to mitochondrial membrane potential, intracellular Ca^2+ levels were also measured using Fluo-3, Ca^2+-sensitive dye [described in 11-13].
# [3] = tested on: SUR2A mRNA; test: Real time RT-PCR of myocardial SUR2A mRNA in mice on nicotinamide-rich diet; format: in vivo; details: n=6
# Text: Real time RT-PCR Total RNA was extracted from cardiac ventricular tissue of transgenic and wild type mice using TRIZOL reagent (Invitrogen, Paisley, UK) according to the manufacturer's recommendations. Extracted RNA was further purified with RNeasy Mini Kit (Qiagen, Crawley, UK) according to the manufacturer's instruction. The specific primers for mouse SUR2A, Kir6.2, Kir6.1, SUR1 and SUR2B (designed to amplify SUR2B and natively present SUR2A) were designed as follows: For SUR2A: sense, […], antisense, […]; for Kir6.2: sense; […], antisense, […]; for Kir6.1: sense, 5′-[…]-3, antisense, 5-[…]-3′; for SUR1: sense, 5′-GGAAGGACTCACCACCATC-3′, antisense, 5′-GAGACCATCAAGGCGTAGG-3′; for SUR2B: sense, 5′-GATGCCACTGTCACCGAAG-3′, antisense, 5-[…]-3′. The real time RT-PCR was performed as described in ref. 14.
# Nicotinamide was administered orally, i.e. as a dietary supplement. Mice were fed with nicotinamide-rich diet (ad libidum; 500 mg of nicotinamide per 1 kg of food) for 3 weeks. Estimated daily intake was 2.5 mg. For some in vitro experiments, cardiac cells were incubated for 24 hours in a DMEM medium containing 10% fetal calf serum, 2 mM glutamine and 20 mM NAD or NADH.
# All experiments have been done on male mice. […] After the test, mice were sacrificed, hearts harvested and SUR2A mRNA levels measured. […]
# [4] = tested on: male mice; test: Treadmill endurance test; format: in vivo; details: one week, n=6
# Procedure: All experiments have been done on male mice. Mice were on RM1 ad libidum diet (SDS, UK) and RM1 diet supplemented with nicotinamide (0.1, 0.5, 2.5, 12.5 g of nicotinamide per kg of diet which would lead to daily intake of 0.04 mg of nicotinamide in control diet and 0.4 mg, 2 mg, 10 mg and 50 mg in nicotinamide-rich diets). All mice were of similar age and weight. Mice were on these diets for a week. To assess physical endurance in these mice, we have used treadmill endurance test. A six lane treadmill (Columbus Instruments, Columbus, Ohio) was used to perform treadmill tests. The exercise-induced stress protocol consisted of a step-wise increase in velocity at constant incline. Before the experiments, animals were acclimatized to the treadmill for 30 minutes; 10 minutes at 0 m/min, 10 minutes at 3 m/min followed by 10 minutes at 6 m/min two days prior to the treadmill endurance test. The treadmill endurance test consisted of a step-wise increase in velocity over time at constant incline. The animal was made to run at 3, 5, 8 (all at m/min) for 3 min intervals followed by 9, 10, 11, 12, 13, 14, 15 (all at m/min) for 5 min intervals and then at a constant velocity of 16 m/min until exhaustion. After the test, mice were sacrificed, hearts harvested and SUR2A mRNA levels measured. More specifically, total RNA was extracted from cardiac ventricular tissue of transgenic and wild type mice using TRIZOL reagent (Invitrogen, Paisley, UK) according to the manufacturer's recommendations. Extracted RNA was further purified with RNeasy Mini Kit (Qiagen, Crawley, UK) according to the manufacturer's instruction. The for mouse SUR2A were designed as follows: sense, […], antisense, […]. The reverse transcription (RT) reaction was carried out with ImProm-II Reverse Transcriptase (Promega, Southampton, UK). […] Efficiency is evaluated by the slope of the regression curve obtained with several dilutions of the cDNA template. […] Threshold cycle values, PCR efficiency (examined by serially diluting the template cDNA and performing PCR under these conditions) and PCR specificity (by constructing the melting curve) were determined by the same software. […] The relative expression ratio(R) of a gene encoding KATP channel subunit is calculated using equation R=(EK)^ΔCPk^(CD-ND)/(ER)^ΔCPR^(CD-ND) where EK is the real time PCR efficiency of SUR2A gene transcript, ER is the real time PCR efficiency of GAPDH gene, ΔCPK is the crossing point deviation of control diet-nicotinamide diet of SUR2A gene transcript while ΔCPR is the crossing point deviation of control diet-nicotinamide diet of GAPDH gene transcript.
structure (smiles),measurement,setting,value
O=[N+]([O-])c1ccc(O)c([N+](=O)[O-])c1 [DNP],cells that survived DNP,[1],43.3±1.8%
CC(C)NCC(O)c1ccc(O)c(O)c1 (stereo not drawn) [isoprenaline],relative fluo-3 fluorescence (calcium levels),[2]; cardiomyocytes from transgenic SUR2A mice,78±16.6
same,relative fluo-3 fluorescence (calcium levels),[2]; cardiomyocytes from wild type mice,127.2±13.8
NC(=O)c1cccnc1 [nicotinamide],"threshold cycle, SUR2A mRNA in the heart","[3]; 0.1 g/kg nicotinamide-rich diet, one week, after treadmill test",21.8±0.8
same,"threshold cycle, SUR2A mRNA in hearts","[3]; nicotinamide-rich diet, 500 mg per 1 kg of food, 3 weeks, lower cycle = more mRNA",23.57±1.47
same,time on treadmill,[4]; 0.1 g/kg nicotinamide in diet,144.0 ± 14.9 min
same,time on treadmill,[4]; 0.5 g/kg nicotinamide in diet,95.3 ± 18.1 min
same,time on treadmill,[4]; 2.5 g/kg nicotinamide in diet,103.7 ± 20.4 min
same,time on treadmill,[4]; 12.5 g/kg nicotinamide in diet,88.2 ± 12.5 min
